{"source": "patent US10449184B2", "about": "“Pharmaceutical compositions of therapeutically active compounds” (Agios Pharmaceuticals, Inc., priority 2014, dated 2019)", "key": {"[1]": {"assay": "Phase 1 clinical trial: pharmacokinetics after oral administration", "assay_type": "in vivo, human", "details": "patients", "experimental": "A full 72-hour PK/PD profile will be conducted: subjects will be required to remain at the study site for 10 hours on Day −3 and return on Days −2, −1, and 1 for 24, 48, and 72 hour samples, respectively.\nAll subjects will undergo PK/PD assessments over a 10-hour period on both C1D15 and C2D1. Additional pre-dose urine and/or blood sampling will be conducted on C1D8, C1D22, C2D15, C3D1, C3D15, and on Day 1 of all subsequent cycles. Available bone marrow biopsy samples also will be assessed for 2HG levels.\nThe blood samples will also be used for the determination of 2HG concentrations and for evaluation of cholesterol and 4β-OH-cholesterol levels.\nThe PK/PD profile from Day −3 through Day 1 is optional for additional subjects enrolled in the dose escalation phase (i.e., for any subjects beyond the 3 initial subjects enrolled in a cohort) and is not required for subjects enrolled in the expansion cohorts.\nAll subjects will undergo 10-hour PK/PD sampling on C1D15 and C2D1 (i.e., on Days 15 and 29 of twice daily dosing). […] Blood samples also will be drawn on Days 8 and 22 of Cycle 1, Day 15 of Cycle 2, Days 1 and 15 of Cycle 3, and Day 1 of each cycle thereafter; all samples will be obtained prior to dosing. Additionally, one blood sample will be drawn at the End of Treatment Visit."}, "[2]": {"system": "advanced hematologic malignancies that harbor an IDH1 mutation (R/R AML)", "assay": "Phase 1 clinical trial: clinical activity assessed by Investigator using IWG AML and MDS criteria", "assay_type": "in vivo, human", "source_text": "Subjects will undergo radiographic evaluations (CT/MRI), and assessment of bone marrow aspirates and biopsies and peripheral blood to assess the extent of disease, at screening, on Day 15, Day 29 and Day 57, and every 56 days thereafter while on study drug treatment, independent of dose delays and/or dose interruptions, and/or at any time when progression of disease is suspected. Two core tumor biopsies will be obtained at screening, at the time of the first assessment of response, and at the time of disease progression within a window of ±3 days around the planned assessment time point. For patients with acute myelogenous leukemia (AML), response to treatment will be determined by the Investigators based on modified International Working Group (IWG) response criteria.\nDisease response to treatment will be assessed through the evaluation of bone marrow biopsies and/or aspirates, along with complete blood counts and examination of peripheral blood films. Subjects will have the extent of their disease assessed and recorded at screening, on Days 15, 29, and 57, every 56 days thereafter while on study drug treatment, independent of dose-delays and/or dose interruptions, and/or at any time when progression of disease is suspected. An assessment also will be conducted at the End of Treatment visit for subjects who discontinue the study due to reasons other than disease progression.\nResponse to treatment as assessed by the site Investigators using modified IWG (for subjects with hematologic malignancies, such as MDS, MDS/MPN or AML). Two-sided 90% confidence intervals on the response rates will be calculated for each dose level and overall. Data will also be summarized by type of malignancy for subjects in the cohort expansion phase. Descriptive statistics will be used to summarize Ki67 levels from tumor biopsies."}}}
{"compound": "N#Cc1ccnc(N2C(=O)CC[C@H]2C(=O)N(c2cncc(F)c2)[C@H](C(=O)NC2CC(F)(F)C2)c2ccccc2Cl)c1", "note": "[Compound 1, (S)—N—((S)-1-(2-chlorophenyl)-2-((3,3-difluorocyclobutyl)amino)-2-oxoethyl)-1-(4-cyanopyridin-2-yl)-N-(5-fluoropyridin-3-yl)-5-oxopyrrolidine-2-carboxamide]", "values": [{"measurement": "half-life", "setting": "[1]; human, plasma", "value": 182, "unit": "h"}, {"measurement": "drug accumulation", "setting": "[1]", "value": "drug accumulation"}, {"measurement": "plasma exposure", "setting": "[1]", "value": "high plasma exposure"}, {"measurement": "CR (complete response)", "setting": "[2]; Cohort 1 100 mg BID (n = 4)", "value": 1}, {"measurement": "Overall response rate (ORR = CR, Marrow CR and PR)", "setting": "[2]; Cohort 1 100 mg BID (n = 4)", "value": "1/4"}, {"measurement": "CR (complete response)", "setting": "[2]; Cohort 2 300 mg QD (n = 4)", "value": 1}, {"measurement": "Overall response rate (ORR = CR, Marrow CR and PR)", "setting": "[2]; Cohort 2 300 mg QD (n = 4)", "value": "1/4"}, {"measurement": "PD (progressive disease)", "setting": "[2]; Cohort 2 300 mg QD (n = 4)", "value": 1}, {"measurement": "CR (complete response)", "setting": "[2]; Cohort 3 500 mg QD (n = 4)", "value": 1}, {"measurement": "Marrow CR (≤5% blasts in BM; no hematological recovery)", "setting": "[2]; Cohort 3 500 mg QD (n = 4)", "value": 2}, {"measurement": "Overall response rate (ORR = CR, Marrow CR and PR)", "setting": "[2]; Cohort 3 500 mg QD (n = 4)", "value": "3/4"}, {"measurement": "CR (complete response)", "setting": "[2]; Cohort 4 800 mg QD (n = 2)", "value": 1}, {"measurement": "Overall response rate (ORR = CR, Marrow CR and PR)", "setting": "[2]; Cohort 4 800 mg QD (n = 2)", "value": "2/2"}, {"measurement": "PR (partial response)", "setting": "[2]; Cohort 4 800 mg QD (n = 2)", "value": 1}, {"measurement": "CR (complete response)", "setting": "[2]; Total N = 14", "value": 4}, {"measurement": "Marrow CR (≤5% blasts in BM; no hematological recovery)", "setting": "[2]; Total N = 14", "value": 2}, {"measurement": "Overall response rate (ORR = CR, Marrow CR and PR)", "setting": "[2]; Total N = 14", "value": "7/14"}, {"measurement": "PD (progressive disease)", "setting": "[2]; Total N = 14", "value": 1}, {"measurement": "PR (partial response)", "setting": "[2]; Total N = 14", "value": 1}, {"measurement": "blasts in bone marrow", "setting": "[2]; patient refractory to 7+3, after 2 weeks of therapy", "value": "< 5", "unit": "%"}, {"measurement": "response of single patient", "setting": "[2]; patient, after 2 weeks of therapy, maintained at D28", "value": "met the criteria for a full CR"}]}
